Data from patent US8685974B2 (Bayer CropScience AG, priority 2009, dated 2014).
Values joined by “and” are separate entries in the source; they are usually repeats but may differ in a detail not shown here. Identical values can stand only once. Like-named read-outs stand apart in the source and are kept apart here. Marks after values point to notes of the source that are not given here.

Columns and labels:
[1] = pH 2.7; for logP value of the minor isomer (in parenthesis in column Isomer ratio [d]): main value of the example measured by method [b]
Fusarium proliferatum = assay: Production of fumonisin FB1 by Fusarium proliferatum (microtiter plate, HPLC-MS/MS and OD620); format: cell-based; settings: for % inhibition FB1 production at 50 μM: 5 days at 20° C., HPLC-MS/MS; for % inhibition fungal growth at 50 μM: Fusarium proliferatum, OD620 at start and after 5 days
Pyrenophora teres = assay: In vivo test on Pyrenophora teres (barley net blotch); settings: dose of 500 ppm; barley plants; grading 12 days after contamination
Outline: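 Scoring is done 12 days after spore spraying (12,000 spores/ml, from 12-day-old culture), relative to water-treated controls. Inoculation follows by 24 h a preventive spray of the aqueous-diluted formulation onto 1-leaf Plaisant barley raised at 12° C.; infection holds 24 h at about 20° C./100% RH, then 12 days at 80% RH.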

Sphaerotheca fuliginea = assay: In vivo test on Sphaerotheca fuliginea (cucurbits powdery mildew); settings: dose of 500 ppm; gherkin plants; grading 12 days after contamination
Method: In Vivo Test on Sphaerotheca fuliginea (Cucurbits Powdery Mildew)
(§1) The active ingredients tested are prepared by homogenization in a mixture of acetone/tween/DMSO, then diluted with water to obtain the desired active material.
Gherkin plants (Vert petit de Paris variety) in starter cups, sown on a 50/50 peat soil-pozzolana substrate and grown at 20° C./23° C., are treated at the cotyledon Z10 stage by spraying with the aqueous suspension described above. Plants, used as controls, are treated with an aqueous solution not containing the active material.
After 24 hours, the plants are contaminated by spraying them with an aqueous suspension of Sphaerotheca fuliginea spores (100 000 spores per ml). The spores are collected from a contaminated plants. The contaminated gherkin plants are incubated at about 20° C./25° C. and at 60/70% relative humidity.
Grading (% of efficacy) is carried out 12 days after the contamination, in comparison with the control plants.

Puccinia recondita = assay: In vivo test on Puccinia recondita (brown rust); settings: dose of 500 ppm; wheat plants; grading 10 days after contamination
Method: In Vivo Test on Puccinia recondita (Brown Rust)
as §1
Wheat plants (Scipion variety) sown on 50/50 peat soil-pozzolana substrate in starter cups and grown at 12° C., are treated at the 1-leaf stage (10 cm tall) by spraying with the aqueous suspension described above.
Plants, used as controls, are treated with an aqueous solution not containing the active material.
After 24 hours, the plants are contaminated by spraying the leaves with an aqueous suspension of Puccinia recondita spores (100,000 spores per ml). The spores are collected from a 10-day-old contaminated wheat and are suspended in water containing 2.5 ml/l of tween 80 10%. The contaminated wheat plants are incubated for 24 hours at 20° C. and at 100% relative humidity, and then for 10 days at 20° C. and at 70% relative humidity.
Grading is carried out 10 days after the contamination, in comparison with the control plants.

Alternaria solani = assay: Alternaria test (tomato) / protective; format: in vivo; settings: 500 ppm active compound, protective spray, evaluated 7 days after inoculation
Outline: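 Efficacy scored 7 days after inoculation, where 100% means no infection and 0% matches the untreated control. Test plants were young tomatoes given a protective spray at the stated rate, compound dissolved in DMF plus emulsifier and diluted with water. Incubation at 20° C, 96% relative humidity.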

Fusarium graminearum = format: cell-based; settings: 50 μM; for % Inhibition of DON/AcDON at 50 μM: 7 days at 28° C.
Leptosphaeria nodorum = Leptosphaeria nodorum test (wheat) / protective; format: in vivo; settings: 500 ppm active compound, protective spray, evaluated 7-9 days after inoculation
Method: Leptosphaeria nodorum Test (Wheat)/Protective
Solvent: 49 parts by weight of N,N-dimethylformamide
Emulsifier: 1 part by weight of alkylaryl polyglycol ether
To produce a suitable preparation of active compound, 1 part by weight of active compound is mixed with the stated amounts of solvent and emulsifier, and the concentrate is diluted with water to the desired concentration.
To test for protective activity, young wheat plants are sprayed with the preparation of active compound at the stated application rate. […] The plants are then placed in a greenhouse at 90% rel. atmospheric humidity and a temperature of 22° C.
Evaluation is carried out 7-9 days after the inoculation. 0% means an efficacy which corresponds to that of the control, whereas an efficacy of 100% means that no infection is observed.

[2] = logP by HPLC on reversed phase columns, method [a] (pH 2.3); format: physicochemical; settings: for log p: method [a]: pH 2.3, 0.1% phosphoric acid and acetonitrile as eluent, main isomer

Row | SMILES | log p [1] | efficacy (Alternaria solani) | % Inhibition of fungal growth at 50 μM (Fusarium graminearum) | % Inhibition of DON/AcDON at 50 μM (Fusarium graminearum) | log p [2] | also measured
1 | Clc1ccc(-c2nn(Cc3ccccc3)cc2-c2ccncn2)s1 [Example 5] | 3.41^[b] |  |  |  |  | logP value of the minor isomer (in parenthesis in column Isomer ratio [d]) [1]: (3.17); % inhibition FB1 production at 50 μM (Fusarium proliferatum): 81%; % inhibition fungal growth at 50 μM (Fusarium proliferatum): 0%; protection (Pyrenophora teres): 70%
2 | CC(C)=CCn1cc(-c2ccncc2)c(-c2ccc(Cl)s2)n1 [Example 7] | 2.25^[b] |  |  |  |  | protection (% of efficacy) (Sphaerotheca fuliginea): 78%
3 | CC(C)CC(C)n1ncc(-c2ccncc2)c1-c1ccc(Cl)s1 (centres unmarked) [Example 14] | 2.42^[b] |  |  |  |  | protection (% of efficacy) (Sphaerotheca fuliginea): 78%
4 | CC#CCn1cc(-c2ccncc2)c(-c2ccc(Cl)s2)n1 [Example 51] | 1.81^[b] |  |  |  |  | logP value of the minor isomer (in parenthesis in column Isomer ratio [d]) [1]: (1.60); protection (Puccinia recondita): 75%; protection (% of efficacy) (Sphaerotheca fuliginea): 100%
5 | Clc1ccc(-c2nn(CC3CCCO3)cc2-c2ccncc2)s1 (centres unmarked) [Example 56] | 1.6^[b] |  |  |  |  | logP value of the minor isomer (in parenthesis in column Isomer ratio [d]) [1]: (1.44); protection (% of efficacy) (Sphaerotheca fuliginea): 88%
6 | Clc1ccc(-c2nn(CCc3ccccc3)cc2-c2ccncc2)s1 [Example 58] | 2.3^[b] |  |  |  |  | protection (% of efficacy) (Sphaerotheca fuliginea): 81%
7 | Clc1ccc(-c2nn(C3CC3)cc2-c2ccncc2)s1 [Example 66] | 1.62^[b] |  |  |  |  | protection (Puccinia recondita): 89% and 95%; protection (% of efficacy) (Sphaerotheca fuliginea): 95%; protection (Pyrenophora teres): 92%
8 | CCC(C)n1cc(-c2cc[n+]([O-])cc2)c(-c2ccc(Cl)s2)n1 (centres unmarked) [Example 92] | 2.56^[b] |  |  |  |  | protection (% of efficacy) (Sphaerotheca fuliginea): 100%
9 | CCC(C)n1cc(-c2ccncc2)c(-c2ccc(F)s2)n1 (centres unmarked) [Example 106] | 1.78^[b] | 100% | 98% | 99% |  | % inhibition FB1 production at 50 μM (Fusarium proliferatum): 98%; % inhibition fungal growth at 50 μM (Fusarium proliferatum): 39%
10 | CC(C)n1cc(-c2ccncc2)c(-c2ccc(F)s2)n1 [Example 108] | 1.53^[b] | 100% | 99% | 100% |  | % inhibition FB1 production at 50 μM (Fusarium proliferatum): 100%; % inhibition fungal growth at 50 μM (Fusarium proliferatum): 25%
11 | CCC(C)n1cc(-c2ccnc(NC(C)=O)c2)c(-c2ccc(Cl)s2)n1 (centres unmarked) [Example 110] | 2.94^[b] | 95% | 99% | 100% |  | efficacy (Leptosphaeria nodorum): 95%; % inhibition FB1 production at 50 μM (Fusarium proliferatum): 99%; % inhibition fungal growth at 50 μM (Fusarium proliferatum): 86%; protection (Pyrenophora teres): 100%
12 | CCC(=O)Nc1cc(-c2cn(CC(C)C)nc2-c2ccc(Cl)s2)ccn1 [Example 396] |  | 100% | 30% | 100% | 3.33^[a] | protection (Pyrenophora teres): 70%
13 | CC(C)Cn1cc(-c2ccnc(NC(=O)C(C)C)c2)c(-c2ccc(Cl)s2)n1 [Example 397] |  | 100% | 32% | 97% | 3.83^[a] | protection (Pyrenophora teres): 90%
14 | CC(C)Cn1cc(-c2ccnc(O)n2)c(-c2ccc(Cl)s2)n1 [Example 398] |  |  |  |  | 2.62^[a] | 
15 | Cc1cn(-c2cc(-c3cn(CC(C)C)nc3-c3ccc(Cl)s3)ccn2)cn1 [Example 399] |  | 78% | 0% | 90% | 2.56^[a] | 
16 | CCC(C)n1cc(-c2ccncc2)c(-c2ccc(C(F)(F)F)s2)n1 (centres unmarked) [Example 400] |  |  | 0% | 99% | 2.58^[a] | 
17 | CC(C)n1cc(-c2ccncc2)c(-c2ccc(C(F)(F)F)s2)n1 [Example 401] |  | 78% | 0% | 99% | 2.2^[a] | 

Row | SMILES | log p [1] | efficacy (Alternaria solani) | % Inhibition of fungal growth at 50 μM (Fusarium graminearum) | % Inhibition of DON/AcDON at 50 μM (Fusarium graminearum) | log p [2] | also measured
18 | FC(F)(F)c1ccc(-c2c(-c3ccncc3)cnn2C2CCCCO2)s1 (centres unmarked) [Example 403] |  |  |  |  | 1.94^[a] | 
19 | Brc1ccc(-c2n[nH]cc2-c2ccncc2)s1 [Example 408] |  | 70% | 0% | 97% | 0.94^[a] | efficacy (Leptosphaeria nodorum): 78%
20 | c1cc(-c2c[nH]nc2-c2cc3ccsc3s2)ccn1 [Example 409] |  |  |  |  | 1.13^[a] | efficacy (Leptosphaeria nodorum): 78%
21 | CC(=O)Nc1nccc(-c2cn(CC(C)C)nc2-c2ccc(Cl)s2)n1 [Example 410] |  |  | 0% | 83% | 3.04^[a] | efficacy (Leptosphaeria nodorum): 94%
22 | CC(C)Cn1cc(-c2ccnc(NC(C)C)n2)c(-c2ccc(Cl)s2)n1 [Example 411] |  |  | 98% | 99% | 4.34^[a] | 
23 | CC#Cc1c(-c2ccncc2)c(-c2ccc(Cl)s2)nn1C(C)C [Example 412] |  | 90% | 98% | 93% | 2.78^[a] | efficacy (Leptosphaeria nodorum): 70%
24 | CC(C)Cn1nc(C2CC2)c(-c2ccncc2)c1-c1ccc(Cl)s1 [Example 413] |  |  |  |  | 2.61^[a] | efficacy (Leptosphaeria nodorum): 70%
25 | CC(C)Cn1nc(-c2ccc(Cl)s2)c(-c2ccncc2)c1C1CC1 [Example 414] |  |  | 11% | 84% | 2.7^[a] | 
26 | CCC(C)n1nc(C2CC2)c(-c2ccncc2)c1-c1ccc(Cl)s1 (centres unmarked) [Example 415] |  |  |  |  | 2.73^[a] | 
27 | CCC(C)n1nc(-c2ccc(Cl)s2)c(-c2ccncc2)c1C1CC1 (centres unmarked) [Example 416] |  |  | 8% | 91% | 2.75^[a] | efficacy (Leptosphaeria nodorum): 70%
28 | CC(C)n1nc(C2CC2)c(-c2ccncc2)c1-c1ccc(Cl)s1 [Example 417] |  |  |  |  | 2.44^[a] | efficacy (Leptosphaeria nodorum): 80%
29 | CC(C)n1nc(-c2ccc(Cl)s2)c(-c2ccncc2)c1C1CC1 [Example 418] |  |  |  |  | 2.44^[a] | 
30 | CC#Cc1[nH]nc(-c2ccc(Cl)s2)c1-c1ccncc1 [Example 419] |  |  |  |  | 1.44^[a] | 
31 | CC#Cc1c(-c2ccncc2)c(-c2ccc(Cl)s2)nn1Cc1ccc(OC)cc1 [Example 420] |  |  |  |  | 3.02^[a] | % inhibition FB1 production at 50 μM (Fusarium proliferatum): 90%; % inhibition fungal growth at 50 μM (Fusarium proliferatum): 21%; logP value of the minor isomer ([2]; minor isomer, in parentheses in the Isomer ratio column, method [a], pH 2.3): (2.53)
32 | CC(C)Cn1cc(-c2ccnc3ccccc23)c(-c2ccc(Cl)s2)n1 [Example 421] |  | 89% |  |  | 3.69^[a] | 
33 | CC(C)Cn1cc(-c2cc(O)ncn2)c(-c2ccc(Cl)s2)n1 [Example 422] |  |  |  |  | 2.84^[a] | 
34 | CC(C)Cn1cc(-c2cc(N)ncn2)c(-c2ccc(Cl)s2)n1 [Example 423] |  | 94% | 91% | 99% | 1.97^[a] | efficacy (Leptosphaeria nodorum): 80%; protection (Pyrenophora teres): 75%
